According to the NIST ThermoML archive (doi:10.1016/j.jct.2018.12.036):
± gives the expanded uncertainty stated by the source.

Conditions: Plate method

SMILES	surface tension liquid-gas (293.15 K)	surface tension liquid-gas (298.15 K)	surface tension liquid-gas (303.15 K)	surface tension liquid-gas (308.15 K)	surface tension liquid-gas (313.15 K)	surface tension liquid-gas (318.15 K)	surface tension liquid-gas (323.15 K)
CCCCn1cc[n+](C)c1.F[P-](F)(F)(F)(F)F [1-butyl-3-methylimidazolium hexafluorophosphate]	44.56 ± 0.46 mN/m	44.32 ± 0.46 mN/m	44.11 ± 0.46 mN/m	43.88 ± 0.46 mN/m	43.63 ± 0.46 mN/m	43.42 ± 0.46 mN/m	43.18 ± 0.45 mN/m
CCCCn1cc[n+](C)c1.F[B-](F)(F)F [1-butyl-3-methylimidazolium tetrafluoroborate]	44.75 ± 0.46 mN/m	44.52 ± 0.46 mN/m	44.16 ± 0.46 mN/m	43.95 ± 0.46 mN/m	43.63 ± 0.46 mN/m	43.34 ± 0.46 mN/m	42.98 ± 0.45 mN/m
CCCC[n+]1ccn(C)c1.O=S(=O)([N-]S(=O)(=O)C(F)(F)F)C(F)(F)F	33.29 ± 0.43 mN/m	33.07 ± 0.43 mN/m	32.88 ± 0.43 mN/m	32.67 ± 0.43 mN/m	32.49 ± 0.43 mN/m	32.29 ± 0.43 mN/m	32.11 ± 0.43 mN/m
